Test system: gut microbiota
Experiment: Gut microbiome analysis (16S rRNA sequencing of fecal samples) in STAM model of NASH
Format: in vivo, C57BL/6J mice
Settings: pre (baseline)
Text: The study is reported in accordance with Animal Research: Reporting of In Vivo Experiments (ARRIVE) guidelines. C57BL/6J mice were obtained from Japan SLC, Inc. (Japan). All animals used in this study were cared for under the following guidelines: Act on Welfare and Management of Animals (Ministry of the Environment, Japan, Act No. 105 of Oct. 1, 1973), standards relating to the care and management of laboratory animals and relief of pain (Notice No. 88 of the Ministry of the Environment, Japan, Apr. 28, 2006) and the guidelines for proper conduct of animal experiments (Science Council of Japan, Jun. 1, 2006). Protocol approvals were obtained from SMC Laboratories, Japan's IACUC (Study reference no: […] Mice were maintained in a specific pathogen-free (SPF) facility under controlled conditions of temperature (23±3° C.), humidity (50±20%), lighting (12-hour artificial light and dark cycles; light from 8:00 to 20:00) and air exchange. The STAM model of NASH was induced as previously described [D10]. Mice were given a single subcutaneous injection of 200 μg streptozotocin (STZ, Sigma-Aldrich, USA) solution 2 days after birth and fed with a high-fat diet (HFD, 57 kcal % fat, Cat #HFD32, CLEA Japan, Inc., Japan) from 4-9 weeks of age. All mice develop liver steatosis and diabetes and at […] mice had established steatohepatitis, histologically. Studygroups: There were five study groups, described below. Eight mice were included in each study group. Eight NASH mice were orally administered vehicle supplemented with AFO-202 Beta Glucan at a dose of 1 mg/kg in a volume of 5 mL/kg once daily from 6 to 9 weeks of age. Eight NASH mice were orally administered vehicle supplemented with Telmisartan at a dose of 10 mg/kg once daily from 6 to 9 weeks of age. Frequency: Fecal samples were collected at the 6 weeks of age (before administration) and 9 weeks of age (before sacrifice). Procedure: At 6 weeks of age, fecal samples were collected from each mouse by clean catch method. […] A sterile petri dish was placed on the bench. Gently massage the abdomen, position the bottom of mouse over a fresh petri dish, and collect 1-2 fecal pellets. At sacrifice, fecal samples were aseptically collected from cecum. The tubes with feces were placed on ice immediately. These tubes were snap frozen in liquid nitrogen and stored at -80° C. for shipping. In this analysis, the 16S rRNA sequence data acquired by the next-generation sequencer from the fecal […] was used to perform community analysis using the QIIME2 program for microbial community analysis. The raw read data in FASTQ format output from the next-generation sequencer was trimmed to remove adapter sequences and low QV regions that may be included in the data. Cutadapt was used to remove adapter sequences from DNA sequencing reads. Trimmomatic was used as read trimming tool for Illumina NGS data. The adapter sequence was trimmed using the adapter trimming program “cutadapt” if the Trimming of the region at the end of the read sequence overlapped the corresponding sequence by at least one base (mismatch tolerance: 20%). When reads containing N were present in at least one of Read1 and Read2, both Read1 and Read2 were removed. Trimming of low QV regions was performed on the read data after processing using the QV trimming program “Trimmomatic” under the following conditions. The window of 20 bases is slid from the 5' side, and the area where the average QV is less than 20 is trimmed. After trimming, only the reads with more than 50 bases remaining in both Read1 and Read2 were taken as output. The microbial community analysis based on 16S rRNA sequence was performed on the sequence data trimmed in the previous section using the microbial community analysis program “QIIME2”. The annotation program “sklearn” included in QIIME2 is used to annotate the ASV (OTU) sequences. […]

`CCCc1nc2c(C)cc(-c3nc4ccccc4n3C)cc2n1Cc1ccc(-c2ccccc2C(=O)O)cc1` [Telmisartan] was tested, and the “Abundance: S24-7, —, —” value (line r302) was 47, the “Abundance: —, —, —” value (line r303) was 0 and the “Abundance: Ruminococcaceae, Oscillospira, —” value (from here on “Abundance … Oscillospira, —”) (line r304) was 35. For the same compound, the “Abundance: Bacteroidaceae, Bacteroides, acidifaciens” value (line r305) was 0, the “Abundance: Bacteroidaceae, Bacteroides, acidifaciens” value (line r306) was 0 and the “Abundance: Lachnospiraceae, Dorea, —” value (line r307) was 25. For the same compound, the “Abundance: Ruminococcaceae, Other, Other” value (line r308) was 10, the “Abundance: Lachnospiraceae, —, —” value (line r309) was 7 and the “Abundance: Lachnospiraceae, —, —” value (line r310) was 20. The “Abundance: S24-7, —, —” value (line r311) was 1, the “Abundance: Lachnospiraceae, Other, Other” value (line r312) was 14 and the “Abundance: —, —, —” value (line r313) was 0. For the same compound, the “Abundance … Oscillospira, —” value (line r314) was 0, the “Abundance … Oscillospira, —” value (line r315) was 42 and the “Abundance: Lachnospiraceae, —, —” value (line r316) was 14. The “Abundance: Erysipelotrichaceae, —, —” value (line r317) was 0, the “Abundance: Lachnospiraceae, —, —” value (line r319) was 13 and the “Abundance … Oscillospira, —” value (line r320) was 0. The “Abundance: Lachnospiraceae, —, —” value (line r321) was 22, the “Abundance: Other, Other, Other” value (line r322) was 49 and the “Abundance: F16, —, —” value (line r323) was 0. The “Abundance: Christensenellaceae, —, —” value (line r324) was 19, the “Abundance: Lachnospiraceae, Other, Other” value (line r325) was 0 and the “Abundance … Oscillospira, —” value (line r326) was 12. The “Abundance: —, —, —” value (line r327) was 80, the “Abundance: Ruminococcaceae, Other, Other” value (line r328) was 14 and the “Abundance: —, —, —” value (line r329) was 0. The “Abundance: Lachnospiraceae, Other, Other” value (line r330) was 0, the “Abundance: Other, Other, Other” value (line r331) was 0 and the “Abundance: Enterococcaceae, Vagococcus, —” value (line r332) was 0. For the same compound, the “Abundance: Ruminococcaceae, Ruminococcus, —” value (line r333) was 23, the “Abundance: Erysipelotrichaceae, Coprabacillus, —” value (line r334) was 11 and the “Abundance: Other, Other, Other” value (line r335) was 0. The “Abundance … Oscillospira, —” value (line r336) was 11, the “Abundance … Oscillospira, —” value (line r337) was 0 and the “Abundance: —, —, —” value (line r338) was 0. The “Abundance: Lachnospiraceae, —, —” value (line r339) was 0, the “Abundance … Oscillospira, —” value (line r340) was 0 and the “Abundance: Lachnospiraceae, Coprococcus, —” value (line r341) was 0. For the same compound, the “Abundance: Ruminococcaceae, Other, Other” value (line r342) was 8, the “Abundance: —, —, —” value (line r343) was 0 and the “Abundance: Erysipelotrichaceae, —, —” value (line r344) was 6. The “Abundance: Rikenellaceae, —, —” value (line r345) was 0, the “Abundance: —, —, —” value (line r346) was 0 and the “Abundance: —, —, —” value (line r347) was 0. The “Abundance: —, —, —” value (line r348) was 8, the “Abundance: Lachnospiraceae, —, —” value (line r349) was 0 and the “Abundance: —, —, —” value (line r350) was 15. For the same compound, the “Abundance: Lachnospiraceae, Clostridium, Other” value (line r351) was 0, the “Abundance: Erysipelotrichaceae, —, —” value (line r352) was 9 and the “Abundance: Streptococcaceae, Streptococcus, minor” value (line r353) was 9. For the same compound, the “Abundance … Oscillospira, —” value (line r354) was 0, the “Abundance: —, —, —” value (line r355) was 27 and the “Abundance: Lachnospiraceae, Other, Other” value (line r356) was 7. The “Abundance: Other, Other, Other” value (line r357) was 36, the “Abundance: —, —, —” value (line r358) was 0 and the “Abundance: —, —, —” value (line r359) was 0. For the same compound, the “Abundance: —, —, —” value (line r360) was 0, the “Abundance: Lachnospiraceae, —, —” value (line r362) was 7 and the “Abundance: Streptococcaceae, Streptococcus, —” value (line r363) was 0. The “Abundance: S24-7, —, —” value (line r365) was 0, the “Abundance: Other, Other, Other” value (line r367) was 0 and the “Abundance: [Mogibacteriaceae], —, —” value (line r368) was 0. The “Abundance: Enterobacteriaceae, Enterobacter, Other” value (line r369) was 0, the “Abundance: Erysipelotrichaceae, —, —” value (line r371) was 0 and the “Abundance: Aerococcaceae, Aerococcus, —” value (line r372) was 0. The “Abundance … Oscillospira, —” value (line r373) was 0, the “Abundance … Oscillospira, —” value (line r374) was 0 and the “Abundance: Other, Other, Other” value (line r375) was 5. For the same compound, the “Abundance: Lachnospiraceae, Coprococcus, —” value (line r377) was 0, the “Abundance: Other, Other, Other” value (line r378) was 35 and the “Abundance: Family Lachnospiraceae, Genus Other, Species Other” value (table row r380) was 11. The “Abundance: Family Ruminococcaceae, Genus Oscillospira, Species —” value (“Abundance … Genus Oscillospira, Species —” below) (table row r381) was 0, the “Abundance: Family S24-7, Genus —, Species —” value (shortened to “Abundance: Family S24-7, Genus”) (table row r382) was 0 and the “Abundance: Family Ruminococcaceae, Genus Ruminococcus, Species —” value (“Abundance … Genus Ruminococcus, Species —” below) (table row r383) was 0. For the same compound, the “Abundance … Genus Oscillospira, Species —” value (table row r384) was 31, the “Abundance … Genus Ruminococcus, Species —” value (table row r389) was 0 and the “Abundance: Family Lachnospiraceae, Genus —, Species —” value (table row r390) was 0. For the same compound, the “Abundance … Genus Oscillospira, Species —” value (table row r391) was 0, the “Abundance: Family Corynebacteriaceae, Genus Corynebacterium, Species stationis” value (table row r394) was 0 and the “Abundance: Family Ruminococcaceae, Genus Other, Species Other” value (table row r395) was 5. The “Abundance: Family S24-7, Genus” value (table row r396) was 0, the “Abundance … Genus Oscillospira, Species —” value (table row r397) was 0 and the “Abundance … Genus Oscillospira, Species —” value (table row r398) was 0. For the same compound, the “Abundance … Genus Ruminococcus, Species —” value (table row r399) was 0, the “Abundance: Family [Mogibacteriaceae], Genus —, Species —” value (table row r400) was 0 and the “Abundance: Family Erysipelotrichaceae, Genus Coprobacillus, Species —” value (table row r401) was 0. The “Abundance: Family Erysipelotrichaceae, Genus Clostridium, Species cocleatum” value (table row r402) was 0, the “Abundance: Family S24-7, Genus” value (table row r403) was 0 and the “Abundance: Family Coriobacteriaceae, Genus —, Species —” value (table row r404) was 0. The “Abundance: Family Coriobacteriaceae, Genus Adlercreutzia, Species —” value (table row r405) was 0, the “Abundance: Family Enterococcaceae, Genus Vagococcus, Species —” value (table row r407) was 0 and the “Abundance: Family [Mogibacteriaceae], Genus —, Species —” value (table row r409) was 0. For the same compound, the “Abundance: Family S24-7, Genus” value (table row r413) was 0, the “Abundance … Genus Oscillospira, Species —” value (table row r414) was 0 and the “Abundance: Family Planococcaceae, Genus Sporosarcina, Species —” value (table row r415) was 0. The “Abundance: Family Erysipelotrichaceae, Genus Other, Species Other” value (table row r417) was 7, the “Abundance … Genus Ruminococcus, Species —” value (table row r419) was 0 and the “Abundance: Family Coriobacteriaceae, Genus Adlercreutzia, Species —” value (table row r423) was 0. The “Abundance: Family Other, Genus Other, Species Other” value (table row r424) was 0, the “Abundance: Family Ruminococcaceae, Genus Other, Species Other” value (table row r425) was 0 and the “Abundance: Family Erysipelotrichaceae, Genus —, Species —” value (table row r426) was 0. The “Abundance: Family Deferribacteraceae, Genus Mucispirillum, Species schaedleri” value (table row r427) was 0 and the “Abundance: Family Methylobacteriaceae, Genus Methylobacterium, Species Other” value (table row r428) was 0.

From patent US20240374631A1, “A COMPOSITION FOR IMPROVING GUT MICROBIOTA, BEHAVIOURAL PATTERN, ALPHA-SYNUCLEIN LEVELS, SLEEP PATTERN AND/OR SERUM MELATONIN” (GN Corporation Co Ltd, priority 2021, published 2024)
